Tested on: DMS-114 complex spheroids with HUVEC/MSC, growth % test/control
Test: Anticancer human tumor DMS-114 cell line growth inhibition [AhR];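 also: spheroids exposed to agents for 7 days before readout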;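 as to viability, T/C: 100% = DMSO vehicle control wells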
Conditions: for IC50: curve of first compound; for viability, T/C: stronger effect = lower value
Source text: Multicellular complex tumor spheroid response to aryl hydrocarbon receptor antagonists in combination with a variety of drugs and investigational agents in selected tumor cell lines
The current study was undertaken to assess response to aryl hydrocarbon receptor antagonists in combination with standard-of-care drugs and investigational agents in solid tumor complex spheroid models. Complex spheroids include a stromal component modeled by human endothelial cells (HUVEC) and fibroblasts modeled by human mesenchymal stem cells (MSCs). The concentration ranges selected for each drug and investigational agent were based upon clinically achievable concentrations if the clinical Cmax of the agent was known.
Compounds. The drugs and investigational agents: BAY 2416964 (NSC825713), GNF351 (NSC835774), CH-223191 (NSC835775), CPI-455 (NSC825282), aza-TdCyd (NSC777586), decitabine (NSC127716), belinostat (NSC758774), entinostat (NSC756642), pevonedistat (NSC761192), tazemetostat (NSC777109), talazoparib (NSC765396), olaparib (NSC753686), selinexor (NSC780203), nedisertib (M3814, NSC802822), bortezomib (NSC756655), venetoclax (NSC766270), doxorubicin (NSC123127), elimusertib (BAY189344, NSC800525), ceralasertib (AZD6738, NSC777638), TAK-243 (NSC785004), alisertib (NSC759677), etoposide (NSC141540), topotecan (NSC609699), eribulin (NSC707389), gemcitabine (NSC613327), carboplatin (NSC241240), cisplatin (NSC119875), and SN-38 (NSC673596) were obtained from the National Cancer Institute (NCI) Developmental Therapeutics Program Chemical Repository (32). The FDA-approved anticancer drug set is available from the Developmental Therapeutics Program at https://dtp.cancer.gov/organization/dscb/obtaining/available plates.htm. […] The stock solutions were prepared in dimethyl sulfoxide (DMSO, Sigma-Aldrich, St. Louis, MO, cat. D2650), except for the platinum compounds which were prepared in saline (Quality Biological, Gaithersburg, MD, cat. 114-055-101), at 800-fold the tested concentration and stored at -70 degrees C prior to their use. All drugs and investigational agents were tested over a range starting from a high concentration at or near the clinical Cmax and decreasing in half-log increments. If the clinical Cmax for an agent had not been determined, the highest concentration tested was 10 microM (Table 1).
Cell Culture. All cells were maintained in an incubator at 37 degrees C and 5% CO2 with 95% humidity. The PDC lines were cultured according to standard operating procedures established by the NCI PDMR (https://pdmr.cancer.gov). Briefly, all PDCs were thawed and cultured in Matrigel-coated flasks prepared with a working solution of 1X Ham's F-12 nutrient mix, without supplementation (Invitrogen, Waltham, MA, cat. 11765054), 100 U/mL penicillin-streptomycin (Invitrogen, cat. 15140122), and 2.5% Matrigel (Corning Inc., Corning, NY, cat. 354248) for the first three passages. All PDCs were cultured in complete DMEM/F-12 media containing advanced DMEM/F-12 (Invitrogen, cat. 12634028), 4.9% defined fetal bovine serum, heat inactivated (HyClone Laboratories Inc., Logan, UT, cat. SH30070.03HI), 389 ng/mL hydrocortisone (Sigma-Aldrich, cat. H4001), 9.7 ng/mL human EGF recombinant protein (Invitrogen, cat. PHG0313), 23.4 microg/mL adenine (Sigma-Aldrich, cat. A2786), 97.3 U/mL penicillin-streptomycin (Invitrogen, cat. 15140122), 1.9 mM L-glutamine (Invitrogen, cat. 25030081), and 9.7 microM Y-27632 dihydrochloride (Tocris Bioscience, Bristol, United Kingdom, cat. 1254). The PDCs were cultured in complete DMEM/F12 media without 10 microM Y-27632 dihydrochloride for at least two passages prior to the screen. The established cell lines NCI-H1341 and […] were cultured in DMEM/F-12, HEPES (Invitrogen, cat. 11330032), 5% defined fetal bovine serum (HyClone Laboratories Inc., cat. SH30070.03), ITS premix universal culture supplement [insulin (5 microg/mL), transferrin (5 microg/mL), and selenious acid (5 ng/mL)] […]

## CCc1c2c(nc3ccc(O)cc13)-c1cc3c(c(=O)n1C2)COC(=O)[C@]3(O)CC + CC(CO)NC(=O)c1cc(-c2ccc(Cl)cc2)nn(-c2cnn(C)c2)c1=O
Second compound 0.1 µM
  IC50: 1.6 nM
Second compound 0.316 µM
  IC50: 1.09 nM
Second compound 1 µM
  IC50: < 0.949 nM
Second compound 3.16 µM
  IC50: < 0.949 nM
Second compound 10 µM
  IC50: < 0.949 nM
Second compound 0.1 µM, first compound 0.000949 µM
  viability, T/C: 56.4%
Second compound 0.1 µM, first compound 0.003 µM
  viability, T/C: 42.4%
Second compound 0.1 µM, first compound 0.00949 µM
  viability, T/C: 23.2%
Second compound 0.1 µM, first compound 0.03 µM
  viability, T/C: 17.5%
Second compound 0.1 µM, first compound 0.0949 µM
  viability, T/C: 17.7%
Second compound 0.1 µM, first compound 0.3 µM
  viability, T/C: 16.2%
Second compound 0.316 µM, first compound 0.000949 µM
  viability, T/C: 51.4%
Second compound 0.316 µM, first compound 0.003 µM
  viability, T/C: 40.4%
Second compound 0.316 µM, first compound 0.00949 µM
  viability, T/C: 21.2%
Second compound 0.316 µM, first compound 0.03 µM
  viability, T/C: 15.8%
Second compound 0.316 µM, first compound 0.0949 µM
  viability, T/C: 15.7%
Second compound 0.316 µM, first compound 0.3 µM
  viability, T/C: 15.4%
Second compound 1 µM, first compound 0.000949 µM
  viability, T/C: 49.4%
Second compound 1 µM, first compound 0.003 µM
  viability, T/C: 37.8%
Second compound 1 µM, first compound 0.00949 µM
  viability, T/C: 21%
Second compound 1 µM, first compound 0.03 µM
  viability, T/C: 15.4%
Second compound 1 µM, first compound 0.0949 µM
  viability, T/C: 18.8%
Second compound 1 µM, first compound 0.3 µM
  viability, T/C: 17.6%
Second compound 3.16 µM, first compound 0.000949 µM
  viability, T/C: 47.9%
Second compound 3.16 µM, first compound 0.003 µM
  viability, T/C: 31.5%
Second compound 3.16 µM, first compound 0.00949 µM
  viability, T/C: 20.7%
Second compound 3.16 µM, first compound 0.03 µM
  viability, T/C: 13.9%
Second compound 3.16 µM, first compound 0.0949 µM
  viability, T/C: 15.3%
Second compound 3.16 µM, first compound 0.3 µM
  viability, T/C: 16.6%
Second compound 10 µM, first compound 0.000949 µM
  viability, T/C: 43.5%
Second compound 10 µM, first compound 0.003 µM
  viability, T/C: 35.9%
Second compound 10 µM, first compound 0.00949 µM
  viability, T/C: 22.4%
Second compound 10 µM, first compound 0.03 µM
  viability, T/C: 15.1%
Second compound 10 µM, first compound 0.0949 µM
  viability, T/C: 15.7%
Second compound 10 µM, first compound 0.3 µM
  viability, T/C: 16.6%

## O=C(c1cc(Cc2n[nH]c(=O)c3ccccc23)ccc1F)N1CCN(C(=O)C2CC2)CC1 + CC(CO)NC(=O)c1cc(-c2ccc(Cl)cc2)nn(-c2cnn(C)c2)c1=O
Second compound 0.1 µM
  IC50: > 10000 nM
Second compound 0.316 µM
  IC50: > 10000 nM
Second compound 1 µM
  IC50: > 10000 nM
Second compound 3.16 µM
  IC50: > 10000 nM
Second compound 10 µM
  IC50: > 10000 nM
Second compound 0.1 µM, first compound 0.0316 µM
  viability, T/C: 119%
Second compound 0.1 µM, first compound 0.1 µM
  viability, T/C: 95.6%
Second compound 0.1 µM, first compound 0.316 µM
  viability, T/C: 89.2%
Second compound 0.1 µM, first compound 1 µM
  viability, T/C: 106%
Second compound 0.1 µM, first compound 3.16 µM
  viability, T/C: 94.3%
Second compound 0.1 µM, first compound 10 µM
  viability, T/C: 63.5%
Second compound 0.316 µM, first compound 0.0316 µM
  viability, T/C: 96.7%
Second compound 0.316 µM, first compound 0.1 µM
  viability, T/C: 96.1%
Second compound 0.316 µM, first compound 0.316 µM
  viability, T/C: 95.5%
Second compound 0.316 µM, first compound 1 µM
  viability, T/C: 94.5%
Second compound 0.316 µM, first compound 3.16 µM
  viability, T/C: 90.3%
Second compound 0.316 µM, first compound 10 µM
  viability, T/C: 68.1%
Second compound 1 µM, first compound 0.0316 µM
  viability, T/C: 108%
Second compound 1 µM, first compound 0.1 µM
  viability, T/C: 88.9%
Second compound 1 µM, first compound 0.316 µM
  viability, T/C: 118%
Second compound 1 µM, first compound 1 µM
  viability, T/C: 107%
Second compound 1 µM, first compound 3.16 µM
  viability, T/C: 102%
Second compound 1 µM, first compound 10 µM
  viability, T/C: 61.7%
Second compound 3.16 µM, first compound 0.0316 µM
  viability, T/C: 99.4%
Second compound 3.16 µM, first compound 0.1 µM
  viability, T/C: 105%
Second compound 3.16 µM, first compound 0.316 µM
  viability, T/C: 95.7%
Second compound 3.16 µM, first compound 1 µM
  viability, T/C: 93.3%
Second compound 3.16 µM, first compound 3.16 µM
  viability, T/C: 85.6%
Second compound 3.16 µM, first compound 10 µM
  viability, T/C: 67.3%
Second compound 10 µM, first compound 0.0316 µM
  viability, T/C: 94%
Second compound 10 µM, first compound 0.1 µM
  viability, T/C: 95.9%
Second compound 10 µM, first compound 0.316 µM
  viability, T/C: 87.8%
Second compound 10 µM, first compound 1 µM
  viability, T/C: 86%
Second compound 10 µM, first compound 3.16 µM
  viability, T/C: 86.2%
Second compound 10 µM, first compound 10 µM
  viability, T/C: 53.1%

From PubChem BioAssay AID1919008 (Molecular Pharmacology Branch, DTP, NCI, 2023)
